# Test results as given in patent US11730746B2, “17beta-heterocyclyl-digitalis like compounds for the treatment of heart failure” (priority 2018, dated 2023).
# Experiments:
# [1] = test system: Imidazoline I2, Central; assay: Receptor binding 241000; parameters: species or system rat; settings: 10 μM
# Method: (§1) Radioligand binding to a panel of receptors was carried out by Eurofins on crude membrane preparations according to published procedures and by using appropriate reference standard (Eurofins, CVie 101 compound code PT #1207859, study #AB76416, quote #68407-1, for Cvie Therapeutics Limited, Taiwan (R.OC.) on Mar. 5, 2017). CVie 101 was tested at the concentration of 10 μM. No significant interaction was documented, except for Sodium Channel, site 2 from rat (cat #279510), where a significant response (≥50%) was noted (Table 7).
# [2] = test system: GABAA, Muscimol, Central; assay: Receptor binding 226500; parameters: species or system rat; settings: 10 μM
# Method: as §1
# [3] = biological target: T1, Aldosterone (Rattus norvegicus, UniProt P22199); assay: Receptor binding 204600
# T1 construct: Eurofins 204600
# Method: as §1
# [4] = biological target: T2, Monoamine Oxidase MAO-A (Homo sapiens, UniProt P21397); assay: Eurofins panel 140010; type: biochemical
# T2 construct: Eurofins 140010
# Method: as §1
# [5] = Bioavailability in rats
# [6] = biological target: T3, Insulin (Rattus norvegicus, UniProt P15127); assay: Receptor binding 243000
# T3 construct: Eurofins (contract assay) 243000
# Method: as §1
# [7] = biological target: T4, dog renal Na,K-ATPase (Canis lupus familiaris, UniProt P50997); assay: Inhibition of dog renal Na,K-ATPase activity (32P-ATP release); type: biochemical
# T4 construct: incubated with 0.3 μg of purified dog kidney enzyme; from tissue; host or cells: dog kidney outer medulla
# Method: Kidneys were sliced and the outer medulla was dissected, pooled and suspended (1 g/10 ml) in a sucrose-histidine solution, containing 250 mM sucrose, 30 mM histidine and 5 mM EDTA, pH 7.2 and homogenized. […] The pellet was suspended in the sucrose-histidine buffer and incubated for 20 min with a sodium-dodecyl-sulphate (SDS) solution dissolved in a gradient buffer, containing 25 mM imidazole and 1 mM EDTA, pH 7.5. […] The pellet was suspended in the gradient buffer.
# Increasing concentrations of the standard ouabain, or tested compound, were incubated with 0.3 μg of purified dog kidney enzyme for 10 min at 37° C. in 120 μl final volume of a medium, containing 140 mM NaCl, 3 mM MgCl2, 50 mM Hepes-Tris, 3 mM ATP, pH 7.5. […] The inhibitory activity was expressed as percent of the control samples carried out in the absence of ouabain or tested compound.
# [8] = rats, study i.v. 1 mg/kg and os 10 mg/kg, mean
# T3 sequence (P15127 27-759 limits assumed): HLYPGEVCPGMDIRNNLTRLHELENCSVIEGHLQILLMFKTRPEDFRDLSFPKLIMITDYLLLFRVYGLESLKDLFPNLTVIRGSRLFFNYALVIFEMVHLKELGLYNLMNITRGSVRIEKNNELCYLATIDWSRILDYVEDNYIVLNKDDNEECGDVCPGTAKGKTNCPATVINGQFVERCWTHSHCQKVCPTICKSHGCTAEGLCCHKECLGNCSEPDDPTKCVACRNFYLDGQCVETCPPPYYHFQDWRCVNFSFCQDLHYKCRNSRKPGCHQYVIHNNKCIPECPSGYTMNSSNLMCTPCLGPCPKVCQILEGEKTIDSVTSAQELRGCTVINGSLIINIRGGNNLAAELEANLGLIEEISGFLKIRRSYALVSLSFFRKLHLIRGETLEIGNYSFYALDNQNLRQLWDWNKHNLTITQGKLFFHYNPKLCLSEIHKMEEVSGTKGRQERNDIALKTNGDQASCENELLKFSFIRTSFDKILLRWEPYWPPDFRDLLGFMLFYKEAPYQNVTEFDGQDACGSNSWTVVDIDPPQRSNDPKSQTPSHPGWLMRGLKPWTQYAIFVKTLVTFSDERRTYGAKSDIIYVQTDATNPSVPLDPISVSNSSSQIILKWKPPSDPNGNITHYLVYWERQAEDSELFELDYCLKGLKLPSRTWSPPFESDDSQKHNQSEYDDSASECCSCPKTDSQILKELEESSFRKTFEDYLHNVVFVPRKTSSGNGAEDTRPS
# T3 sequence (P15127 764-1383 partner limits assumed): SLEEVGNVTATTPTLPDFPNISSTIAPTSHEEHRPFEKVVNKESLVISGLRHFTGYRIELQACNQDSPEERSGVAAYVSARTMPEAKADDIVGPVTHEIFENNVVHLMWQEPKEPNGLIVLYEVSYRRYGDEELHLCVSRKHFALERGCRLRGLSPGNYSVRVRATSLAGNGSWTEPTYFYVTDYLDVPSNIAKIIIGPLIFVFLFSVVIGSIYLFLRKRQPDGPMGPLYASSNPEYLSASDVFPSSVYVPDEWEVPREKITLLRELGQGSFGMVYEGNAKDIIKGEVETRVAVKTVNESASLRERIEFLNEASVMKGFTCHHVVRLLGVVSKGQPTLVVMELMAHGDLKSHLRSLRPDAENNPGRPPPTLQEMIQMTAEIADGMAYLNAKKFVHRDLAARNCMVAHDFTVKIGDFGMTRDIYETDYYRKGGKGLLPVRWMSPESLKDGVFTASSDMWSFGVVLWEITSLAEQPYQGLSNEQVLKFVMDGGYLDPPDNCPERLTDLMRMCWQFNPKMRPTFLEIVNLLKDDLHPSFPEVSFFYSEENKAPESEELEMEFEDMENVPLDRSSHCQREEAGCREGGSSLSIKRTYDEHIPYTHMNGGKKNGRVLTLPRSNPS
# T2 sequence (P21397 whole entry): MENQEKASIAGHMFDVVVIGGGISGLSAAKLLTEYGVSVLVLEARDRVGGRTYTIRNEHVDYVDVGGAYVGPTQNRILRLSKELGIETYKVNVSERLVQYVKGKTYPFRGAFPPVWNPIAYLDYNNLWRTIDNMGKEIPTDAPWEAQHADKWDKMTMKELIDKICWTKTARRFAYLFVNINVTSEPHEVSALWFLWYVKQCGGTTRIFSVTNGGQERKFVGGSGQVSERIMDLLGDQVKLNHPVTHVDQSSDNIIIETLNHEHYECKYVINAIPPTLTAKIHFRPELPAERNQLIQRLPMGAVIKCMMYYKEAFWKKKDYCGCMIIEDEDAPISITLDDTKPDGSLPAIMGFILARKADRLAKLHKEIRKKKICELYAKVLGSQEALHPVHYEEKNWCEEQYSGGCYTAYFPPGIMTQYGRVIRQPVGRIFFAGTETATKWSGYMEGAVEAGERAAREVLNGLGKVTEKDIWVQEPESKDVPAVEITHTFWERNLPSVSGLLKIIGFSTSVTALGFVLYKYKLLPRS
# T1 sequence (P22199 whole entry): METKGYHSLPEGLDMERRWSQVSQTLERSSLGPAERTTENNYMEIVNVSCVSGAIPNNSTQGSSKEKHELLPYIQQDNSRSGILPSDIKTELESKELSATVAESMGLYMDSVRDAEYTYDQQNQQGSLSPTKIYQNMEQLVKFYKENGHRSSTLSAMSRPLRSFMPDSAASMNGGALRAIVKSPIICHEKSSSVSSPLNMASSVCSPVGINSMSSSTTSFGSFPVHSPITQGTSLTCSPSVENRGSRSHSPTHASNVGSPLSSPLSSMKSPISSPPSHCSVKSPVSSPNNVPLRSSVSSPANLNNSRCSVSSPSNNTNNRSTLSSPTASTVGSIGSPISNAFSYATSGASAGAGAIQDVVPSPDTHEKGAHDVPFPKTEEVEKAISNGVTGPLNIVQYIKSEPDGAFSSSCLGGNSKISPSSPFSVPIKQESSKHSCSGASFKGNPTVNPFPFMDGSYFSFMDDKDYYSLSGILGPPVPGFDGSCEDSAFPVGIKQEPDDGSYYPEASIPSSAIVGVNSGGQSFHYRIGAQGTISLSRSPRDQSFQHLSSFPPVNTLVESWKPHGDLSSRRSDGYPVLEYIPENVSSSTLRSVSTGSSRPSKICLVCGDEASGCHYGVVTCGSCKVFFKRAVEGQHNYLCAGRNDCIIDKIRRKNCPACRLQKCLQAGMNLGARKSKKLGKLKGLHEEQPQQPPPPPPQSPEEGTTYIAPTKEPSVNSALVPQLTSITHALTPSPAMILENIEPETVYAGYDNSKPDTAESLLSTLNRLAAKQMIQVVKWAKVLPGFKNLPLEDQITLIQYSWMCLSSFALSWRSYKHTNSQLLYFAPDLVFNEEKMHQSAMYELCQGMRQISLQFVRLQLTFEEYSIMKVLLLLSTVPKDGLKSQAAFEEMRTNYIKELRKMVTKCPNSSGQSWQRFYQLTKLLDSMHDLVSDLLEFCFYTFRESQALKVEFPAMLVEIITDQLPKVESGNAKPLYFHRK
structure (smiles),measurement,setting,value
"C[C@]12CC[C@H](O)C[C@H]1CCC1C2CC[C@]2(C)[C@@H](c3c[nH]cn3)CC[C@]12O (stereo partly drawn) [CVie 101, 3β-hydroxy-5β-10β-methyl-13β-methyl-14β-hydroxy-17β-(imidazol-4-yl)androstane]",% inhib,[1],25%
same,% inhib,[2],−9%
same,inhibition at 10 µM,[3],6%
same,inhibition at 10 µM,[4],4%
same,AUC(0-inf),"[5]; rat, in vivo, 10 mg/kg",2490 ng·h/mL
same,AUC(0-t),"[5]; rat, in vivo, 10 mg/kg",2430 ng·h/mL
same,Cmax,"[5]; rat, in vivo, 10 mg/kg",1020 ng/mL
same,MRT last,"[5]; rat, in vivo, 10 mg/kg",2.03 h
same,Tmax,"[5]; rat, in vivo, 10 mg/kg",0.5 h
same,half-life,"[5]; rat, in vivo, 10 mg/kg",2.21 h
same,bioavailability,"[5]; rat, in vivo, po, 10 mg/kg",66.3%
same,Cl_F_pred,[5]; [8],81.3 mL/min/kg
same,Vz_F_pred,[5]; [8],14.29 L/kg
same,inhibition at 10 µM,[6],-7%
same,IC50,[7],710 nM
